{"source": "patent US6486098B1", "about": "“Herbicidal phenoxypropionic acid N-alkyl-N-2-fluorophenyl amide compounds” (Dongbu Hannong Chemical Co. Ltd., priority 1999, dated 2002)", "key": {"DIGSA (Large crabgrass)": {"tested_on": "DIGSA (Large crabgrass)", "assay": "Leaf treatment test, large crabgrass", "format": "in vivo, Digitaria Sanguinalis (L.) SCOP", "details": "14 days after treatment", "description": "(§1) Seeds of rice, wheat, barley, corn, cotton, barnyard grass, common sorgum, large crabgrass and fall panicum were seeded at a pot with a surface area of 600 cm^2. […] 14 days after the treatment, the degree of damage to the plants was rated in % damage in comparison to the development of untreated control."}, "GOSHI (Cotton)": {"tested_on": "GOSHI (Cotton)", "assay": "Leaf treatment test, cotton", "format": "in vivo, Gossypium", "details": "14 days after treatment", "description": "as §1"}, "GLXMA (Soy bean)": {"tested_on": "GLXMA (Soy bean)", "assay": "Leaf treatment test, soy bean", "format": "in vivo, Glycine max (L.) MERR", "details": "14 days after treatment"}, "TRZAW (Wheat)": {"tested_on": "TRZAW (Wheat)", "assay": "Leaf treatment test, wheat", "format": "in vivo, Triticum aestivum L.", "details": "treated amount 0.025 kg/ha, 14 days after treatment", "description": "as §1"}, "ORYSA (Rice)": {"tested_on": "ORYSA (Rice)", "assay": "Leaf treatment test, rice", "format": "in vivo, Oryza sativa L. cv. Dongjin", "details": "14 days after treatment", "description": "as §1"}, "Rice (ORYSA)": {"tested_on": "Rice (ORYSA)", "details": "6.0˜6.5 leaves, 200 g a.i per hactare on the leaves, Tech. 98%", "procedure": "Rice[Oryza sativa. L. cv. Chuchong(ORYSA)] and barnyard grass [Eclzinocgloa crus-galli beauv. var. caudate Kitagawa(ECHCG) and Ecliinocgloa crus-galli Beauv. var. orygicola Ohwi (ECHOR)] were planted and grown. The test compounds with 98% purity was dissolved in acetone containing tween-20 and diluted with water. Each maximum concentration of acetone and tween-20 were 25% and 0.1%.\nThe solution was sprayed in a proportion of 200 g a.i per hactare on the leaves. When rice{ORYSA} had 6.0˜6.5 leaves with 32.8 cm of the first leaf, barnyard grass(ECHOR) had 1˜2 tillering with 37.3 cm of the first leaf and barnyard grass(ECHCG) had 1˜2 tillering with 44.4 cm of the first leaf.\n20 and 30 days after treatment (DAT) herbicidal effect and toxicity were measured."}, "barnyard grass (ECHOR)": {"tested_on": "barnyard grass (ECHOR)", "assay": "Experimental Example 2, herbicidal effect on barnyard grass ECHOR", "format": "in vivo, Ecliinocgloa crus-galli Beauv. var. orygicola Ohwi", "details": "1˜2 tillering, 200 g a.i per hactare on the leaves, Tech. 98%", "excerpt": "(§2) Rice[Oryza sativa. L. cv.\n(§3) The result is represented in the following table 8."}, "barnyard grass (ECHCG)": {"tested_on": "barnyard grass (ECHCG)", "assay": "Experimental Example 2, herbicidal effect on barnyard grass ECHCG", "format": "in vivo, Eclzinocgloa crus-galli beauv. var. caudate Kitagawa", "details": "1˜2 tillering, 200 g a.i per hactare on the leaves, Tech. 98%", "excerpt": "as §2, §3"}, "SORBI (Common sorgum)": {"tested_on": "SORBI (Common sorgum)", "assay": "Leaf treatment test, common sorgum", "format": "in vivo, Andropogon sorghum", "details": "14 days after treatment", "description": "as §1"}, "PANDI (Fall panicum)": {"tested_on": "PANDI (Fall panicum)", "assay": "Leaf treatment test, fall panicum", "format": "in vivo, Panicum dichotomiflorum Michx", "details": "14 days after treatment", "description": "as §1"}, "ZEAMX (Corn)": {"tested_on": "ZEAMX (Corn)", "assay": "Leaf treatment test, corn", "format": "in vivo, Zea mays L.", "details": "14 days after treatment", "description": "as §1"}, "ECHCG (Barnyard grass)": {"tested_on": "ECHCG (Barnyard grass)", "assay": "Leaf treatment test, barnyard grass", "format": "in vivo, Echinochloa crus-galli Beauv. var. caudata Kitagawa", "details": "leaf treatment at three leaves, 14 days after treatment", "description": "as §1"}}, "note": "Several values for one entry are separate records, joined by “and”; a condition that tells them apart may be missing. Identical values can stand only once."}
{"molecule": "CC(Oc1ccc(Oc2nc3ccc(Cl)cc3o2)cc1)C(=O)Nc1ccccc1F", "note": "(stereo not shown) [control 1, 2-[4-(6-Chloro-2-benzoxazoyloxy)-phenoxy]propionic Acid-N-(2-fluorophenyl)amide, reference compound]", "values": [{"measurement": "degree of damage to the plants (% damage)", "setting": "DIGSA (Large crabgrass); treated amount 0.025 kg/ha", "result": 100, "unit": "%"}, {"measurement": "degree of damage to the plants (% damage)", "setting": "DIGSA (Large crabgrass); treated amount 0.1 kg/ha", "result": 100, "unit": "%"}, {"measurement": "degree of damage to the plants (% damage)", "setting": "DIGSA (Large crabgrass); treated amount 0.4 kg/ha", "result": 100, "unit": "%"}, {"measurement": "degree of damage to the plants (% damage)", "setting": "GOSHI (Cotton); treated amount 0.025 kg/ha", "result": 0, "unit": "%"}, {"measurement": "degree of damage to the plants (% damage)", "setting": "GOSHI (Cotton); treated amount 0.1 kg/ha", "result": 0, "unit": "%"}, {"measurement": "degree of damage to the plants (% damage)", "setting": "GOSHI (Cotton); treated amount 0.4 kg/ha", "result": 0, "unit": "%"}, {"measurement": "degree of damage to the plants (% damage)", "setting": "GLXMA (Soy bean); treated amount 0.025 kg/ha", "result": 0, "unit": "%"}, {"measurement": "degree of damage to the plants (% damage)", "setting": "GLXMA (Soy bean); treated amount 0.4 kg/ha", "result": "40% and 30%"}, {"measurement": "degree of damage to the plants (% damage)", "setting": "TRZAW (Wheat)", "result": 0, "unit": "%"}, {"measurement": "degree of damage to the plants (% damage)", "setting": "ORYSA (Rice); treated amount 0.025 kg/ha", "result": "35% and 40%"}, {"measurement": "degree of damage to the plants (% damage)", "setting": "ORYSA (Rice); treated amount 0.1 kg/ha", "result": "50% and 70%"}, {"measurement": "degree of damage to the plants (% damage)", "setting": "ORYSA (Rice); treated amount 0.4 kg/ha", "result": "70% and 90%"}, {"measurement": "toxicity (0˜100) 20 DAT", "setting": "Rice (ORYSA); 20 DAT", "result": 22}, {"measurement": "toxicity (0˜100) 30 DAT", "setting": "Rice (ORYSA); 30 DAT", "result": 39}, {"measurement": "activity (0˜100), 20 DAT ECHOR", "setting": "barnyard grass (ECHOR)", "result": 100}, {"measurement": "activity (0˜100), 20 DAT ECHCG", "setting": "barnyard grass (ECHCG)", "result": 100}, {"measurement": "degree of damage to the plants (% damage)", "setting": "SORBI (Common sorgum); treated amount 0.025 kg/ha", "result": 100, "unit": "%"}, {"measurement": "degree of damage to the plants (% damage)", "setting": "SORBI (Common sorgum); treated amount 0.1 kg/ha", "result": 100, "unit": "%"}, {"measurement": "degree of damage to the plants (% damage)", "setting": "SORBI (Common sorgum); treated amount 0.4 kg/ha", "result": 100, "unit": "%"}, {"measurement": "degree of damage to the plants (% damage)", "setting": "PANDI (Fall panicum); treated amount 0.025 kg/ha", "result": "100% and 95%"}, {"measurement": "degree of damage to the plants (% damage)", "setting": "PANDI (Fall panicum); treated amount 0.1 kg/ha", "result": 100, "unit": "%"}, {"measurement": "degree of damage to the plants (% damage)", "setting": "PANDI (Fall panicum); treated amount 0.4 kg/ha", "result": 100, "unit": "%"}, {"measurement": "degree of damage to the plants (% damage)", "setting": "ZEAMX (Corn); treated amount 0.025 kg/ha", "result": "100% and 80%"}, {"measurement": "degree of damage to the plants (% damage)", "setting": "ZEAMX (Corn); treated amount 0.1 kg/ha", "result": 100, "unit": "%"}, {"measurement": "degree of damage to the plants (% damage)", "setting": "ZEAMX (Corn); treated amount 0.4 kg/ha", "result": 100, "unit": "%"}, {"measurement": "degree of damage to the plants (% damage)", "setting": "ECHCG (Barnyard grass); treated amount 0.025 kg/ha", "result": 100, "unit": "%"}, {"measurement": "degree of damage to the plants (% damage)", "setting": "ECHCG (Barnyard grass); treated amount 0.1 kg/ha", "result": 100, "unit": "%"}, {"measurement": "degree of damage to the plants (% damage)", "setting": "ECHCG (Barnyard grass); treated amount 0.4 kg/ha", "result": 100, "unit": "%"}]}
